Assay results: publication PMC5118987 (Antimicrobial Agents and Chemotherapy, 2016)
Where two headings read alike, the source gives them in different places.

Columns and labels:
[1] = system: NRTI-, NNRTI- and PI-Resistant HIV-1 Mutants; experiment: Antiviral activity against NRTI-, NNRTI- and PI-resistant HIV-1 mutants; assay type: cell-based; details: for EC50: Human immunodeficiency virus 1, WT, Table S7
[2] = system: HIV-1 BaL; details: primary CD4+ T-cells, 35 days, drug at tissue culture equivalent clinical Cmin (FTC 160 × EC50)
[3] = Cytotoxicity in AD38 cells; details: human
[4] = system: HBV Production; experiment: microbe, parasite or virus in culture; details: Hepatitis B virus
[5] = system: HIV-1 IIIb; experiment: HIV breakthrough selection in MT-2 cells; details: MT-2, HIV-1 IIIb; FTC 4× EC95, EVG 5× EC95, BIC and DTG 2.5× and 5× EC95; up to day 32
[6] = in vitro; details: human, CC50 in Primary Human Hepatocytes
[7] = system: HIV-1 IIIb; experiment: Antiviral assay in MT-2 cells; assay type: cell-based; details: Human immunodeficiency virus 1, IIIB, MT2; Table S9 footnote b; read-out: EC50 previously determined (start of resistance selection at twice the EC50)
Protocol: For the antiviral assay utilizing MT-2 and MT-4 cells, 50 μl of a 2× test concentration of 5-fold serially diluted compound in culture medium with 10% FBS was added to each well of a 96-well plate (9 concentrations) in triplicate. MT-2 and MT-4 cells were infected with HIV-1 IIIb at a multiplicity of infection (MOI) of 0.01 for 3 h. Fifty microliters of infected cell suspension in culture medium with 10% FBS (∼1.5 × 10^4 cells) then was added to each well containing 50 μl of diluted compound. The plates were then incubated at 37°C for 5 days. After 5 days of incubation, 100 μl of CellTiter-Glo reagent (Promega Biosciences, Inc., Madison, WI) was added to each well containing MT-2 or MT-4 cells. Cell lysis was carried out by incubation at room temperature for 10 min and chemiluminescence was read. For compound cytotoxicity assessment, the protocol was identical except that uninfected cells were used and compounds were serially diluted 3-fold.

[8] = system: inhibitor-selected HIV-1 IIIb passages; experiment: Phenotypic profile of selected HIV-1 passages; assay type: cell-based; details: for EC50: Human immunodeficiency virus 1, IIIB
[9] = system: INSTI-resistant HIV-1 mutants (HXB2); experiment: microbe, parasite or virus in culture; assay type: cell-based
[10] = system: HIV-1 integration in MT-2 cells (HIV-1 IIIb); details: relative to DMSO; for Late reverse transcription products (fold change): HIV-1 IIIb-infected MT-2, compound >20-fold EC50, 12 h; for Alu-LTR integration junctions (fold change) / Integration failure of 2-LTR circles (fold change): HIV-1 IIIb-infected MT-2, compound >20-fold EC50, 24 h
Protocol: Quantification of 2-long terminal repeat (LTR) circles, late reverse transcription products, and integration junctions was adapted from a previously described method ([30]). […] Three hours after viral adsorption, the infected cells were washed twice with 20 ml of RPMI 1640 medium containing 10% FBS and antibiotics and seeded in 6-well plates in 2 ml of culture medium at 1 × 10^6 cells per well. […] These plates were incubated at 37°C for either 12 h (for late reverse transcription product quantification) or 24 h (for 2-LTR circle and Alu-LTR product quantification), after which time the cells were harvested for total DNA isolation. DNA was extracted from each well using the QIAamp DNA minikit (Qiagen, Valencia, CA) and collected as a 100-μl eluate. TaqMan real-time PCR-quantified 2-LTR junctions (2-LTR circles), late reverse transcription products, and integration junctions (Alu-LTR) were normalized to the level of host globin gene in each sample. Quantification by PCR was performed on the ViiA 7 real-time PCR system (Life Technologies, Grand Island, NY).

[11] = 480 h, selected virus EVG P2 (day 20, 7.2 nM)
[12] = selected virus BIC P3 (day 47, 6 nM)
[13] = selected virus BIC P5 (day 71, 12 nM)
[14] = selected virus BIC P6 (day 86, 24 nM)
[15] = selected virus BIC P8 (day 156, 96 nM)
[16] = selected virus BIC P9 (day 181, 192 nM)
[17] = selected virus BIC P10 (day 234, 384 nM)
[18] = selected virus DTG P3Lo (day 59, 6.4 nM)
[19] = selected virus DTG P4 (day 87, 9.6 nM)
[20] = selected virus DTG P5 (day 97, 14.4 nM)
[21] = selected virus DTG P7 (day 139, 32.4 nM)
[22] = selected virus DTG P9 (day 174, 72.9 nM)
[23] = selected virus DTG P10 (day 202, 109.4 nM)
[24] = selected virus EVG P4 (day 41, 28.8 nM)
[25] = selected virus EVG P6 (day 56, 115 nM)
[26] = selected virus EVG P7 (day 67, 230 nM)
[27] = selected virus EVG P9 (day 94, 922 nM)
[28] = selected virus EVG P10 (day 119, 1843 nM)

SMILES: Cc1cc(/C=C/C#N)cc(C)c1Nc1ccnc(Nc2ccc(C#N)cc2)n1 [RPV, rilpivirine]
- EC50 [1]: 0.8 ± 0.4 nM
- EC50 Fold Change Relative to WT ([1]; NNRTI resistant L100I K103N): 21.9 fold change
- Frequency of Viral Breakthrough with RAMs [2]: 25%
- p24+ Wells [2]: 6/24

SMILES: Nc1nc(=O)n([C@@H]2CS[C@H](CO)O2)cc1F [FTC, emtricitabine]
- EC50 [1]: 385 ± 225 nM
- EC50 Fold Change Relative to WT ([1]; NRTI resistant 6TAMs): 10.8 fold change
- CC50 at 5 days [3]: > 50000 nM
- EC50 [4]: 20 nM
- day postinfection of HIV-1 breakthrough [5]: 7 days
- Frequency of Viral Breakthrough with RAMs [2]: 58%
- p24+ Wells [2]: 14/24

SMILES: COc1ccc(C[C@H](N)C(=O)N[C@H]2[C@@H](O)[C@H](n3cnc4c(N(C)C)ncnc43)O[C@@H]2CO)cc1 [Puromycin]
- CC50 ([6]; Donor 1): 1200 nM
- CC50 ([6]; Donor 2): 830 nM

SMILES: COc1cc2c(cc1Cc1cccc(Cl)c1F)c(=O)c(C(=O)O)cn2[C@H](CO)C(C)C [EVG, elvitegravir]
- EC50 [7]: 1.8 nM
- EC50 [8, 11]: 17.8 nM
- EC50 ([8]; HIV-1-IIIb (unselected)): 2.1 nM
- EC50 [8, 12]: 5.1 nM
- EC50 [8, 13]: 8.3 nM
- EC50 [8, 14]: 7.8 nM
- EC50 [8, 15]: 33.6 nM
- EC50 [8, 16]: 55 nM
- EC50 [8, 17]: 33 nM
- EC50 [8, 18]: 1.7 nM
- EC50 [8, 19]: 5 nM
- EC50 [8, 20]: 9.3 nM
- EC50 [8, 21]: 15.5 nM
- EC50 [8, 22]: 25.1 nM
- EC50 [8, 23]: 69.2 nM
- EC50 [8, 24]: 30.2 nM
- EC50 [8, 25]: 48.9 nM
- EC50 [8, 26]: 203 nM
- EC50 [8, 27]: 296 nM
- EC50 [8, 28]: 246 nM
- EC50 [1]: 2.5 ± 1.5 nM
- day postinfection of HIV-1 breakthrough [5]: 22 days
- Frequency of Viral Breakthrough with RAMs [2]: 54%
- p24+ Wells [2]: 23/24

SMILES: O=C1Nc2ccc(Cl)cc2[C@@](C#CC2CC2)(C(F)(F)F)O1 [EFV, efavirenz]
- EC50 ([9]; Human immunodeficiency virus 1, HXB2, IN mutant E92Q): 1.5 ± 0.3 nM
- EC50 ([9]; Human immunodeficiency virus 1, HXB2, IN mutant E92Q/N155H): 1.5 ± 0.4 nM
- EC50 ([9]; Human immunodeficiency virus 1, HXB2, IN mutant E138K/Q148K): 1.9 ± 0.4 nM
- EC50 ([9]; Human immunodeficiency virus 1, HXB2, IN mutant G140S/Q148R): 1.5 ± 0.3 nM
- EC50 ([9]; Human immunodeficiency virus 1, HXB2, IN mutant M50I (BIC/DTG selection)): 1.1 ± 0.4 nM
- EC50 ([9]; Human immunodeficiency virus 1, HXB2, IN mutant M50I/R263K (BIC selection)): 1 ± 0.3 nM
- EC50 ([9]; Human immunodeficiency virus 1, HXB2, IN mutant M50I/S119R/R263K (DTG selection)): 3.2 ± 1.8 nM
- EC50 ([9]; Human immunodeficiency virus 1, HXB2, IN mutant N155H): 1.6 ± 0.05 nM
- EC50 ([9]; Human immunodeficiency virus 1, HXB2, IN mutant N155H/Q148R): 2.2 ± 0.8 nM
- EC50 ([9]; Human immunodeficiency virus 1, HXB2, IN mutant Q148R): 1.7 ± 0.1 nM
- EC50 ([9]; Human immunodeficiency virus 1, HXB2, IN mutant R263K (BIC/DTG selection), Table 7): 1 ± 0.4 nM
- EC50 ([9]; Human immunodeficiency virus 1, HXB2, IN mutant R263K, Table 6): 1.8 ± 0.3 nM
- EC50 ([9]; Human immunodeficiency virus 1, HXB2, IN mutant S119R (DTG selection)): 2.1 ± 1.1 nM
- EC50 ([9]; Human immunodeficiency virus 1, HXB2, IN mutant S119R/R263K (DTG selection)): 2.1 ± 1 nM
- EC50 ([9]; Human immunodeficiency virus 1, HXB2, IN mutant S153Y (DTG selection)): 2.2 ± 1.1 nM
- EC50 ([9]; Human immunodeficiency virus 1, HXB2, IN mutant S153Y/R263K (DTG selection)): 2 ± 0.7 nM
- EC50 ([9]; Human immunodeficiency virus 1, HXB2, IN mutant Y143R): 1.7 ± 0.1 nM
- EC50 ([9]; Human immunodeficiency virus 1, HXB2, WT (HXB2), Table 6, read-out: EC50): 1.9 ± 0.3 nM
- EC50 ([9]; Human immunodeficiency virus 1, HXB2, WT (HXB2), Table 7, read-out: EC50): 1.2 ± 0.4 nM
- Fold-Resistance Relative to HIV-1 IIIb ([8]; HIV-1-IIIb (reference)): 1 fold
- EC50 [8, 11]: 3 nM
- EC50 ([8]; HIV-1-IIIb (unselected)): 1.6 nM
- EC50 [8, 12]: 1.6 nM
- EC50 [8, 13]: 1.2 nM
- EC50 [8, 14]: 1.3 nM
- EC50 [8, 15]: 1.7 nM
- EC50 [8, 16]: 2.8 nM
- EC50 [8, 17]: 2.7 nM
- EC50 [8, 18]: 1.2 nM
- EC50 [8, 19]: 1.8 nM
- EC50 [8, 20]: 1.7 nM
- EC50 [8, 21]: 2.3 nM
- EC50 [8, 22]: 2.1 nM
- EC50 [8, 23]: 2.8 nM
- EC50 [8, 24]: 2.8 nM
- EC50 [8, 25]: 2.4 nM
- EC50 [8, 26]: 3.6 nM
- EC50 [8, 27]: 3.2 nM
- EC50 [8, 28]: 2 nM
- Fold-Resistance Relative to HIV-1 IIIb ([8]; selected virus BIC P3): 1 fold
- Fold-Resistance Relative to HIV-1 IIIb ([8]; selected virus BIC P5): 0.8 fold
- Fold-Resistance Relative to HIV-1 IIIb ([8]; selected virus BIC P6): 0.8 fold
- Fold-Resistance Relative to HIV-1 IIIb ([8]; selected virus BIC P8): 1.1 fold
- Fold-Resistance Relative to HIV-1 IIIb ([8]; selected virus BIC P9): 1.8 fold
- Fold-Resistance Relative to HIV-1 IIIb ([8]; selected virus BIC P10): 1.7 fold
- Fold-Resistance Relative to HIV-1 IIIb ([8]; selected virus DTG P3Lo): 0.8 fold
- Fold-Resistance Relative to HIV-1 IIIb ([8]; selected virus DTG P4): 1.1 fold
- Fold-Resistance Relative to HIV-1 IIIb ([8]; selected virus DTG P5): 1.0 fold
- Fold-Resistance Relative to HIV-1 IIIb ([8]; selected virus DTG P7): 1.4 fold
- Fold-Resistance Relative to HIV-1 IIIb ([8]; selected virus DTG P9): 1.3 fold
- Fold-Resistance Relative to HIV-1 IIIb ([8]; selected virus DTG P10): 1.8 fold
- Fold-Resistance Relative to HIV-1 IIIb ([8]; selected virus EVG P2): 1.8 fold
- Fold-Resistance Relative to HIV-1 IIIb ([8]; selected virus EVG P4): 1.7 fold
- Fold-Resistance Relative to HIV-1 IIIb ([8]; selected virus EVG P6): 1.5 fold
- Fold-Resistance Relative to HIV-1 IIIb ([8]; selected virus EVG P7): 2.2 fold
- Fold-Resistance Relative to HIV-1 IIIb ([8]; selected virus EVG P9): 2.0 fold
- Fold-Resistance Relative to HIV-1 IIIb ([8]; selected virus EVG P10): 1.2 fold
- EC50 [1]: 1.2 ± 0.4 nM
- EC50 Fold Change Relative to WT ([1]; NNRTI resistant L100I K103N): > 83 fold change
- Frequency of Viral Breakthrough with RAMs [2]: 17%
- p24+ Wells [2]: 2/12
- Late reverse transcription products (fold change) [10]: 0.21 ± 0.07 fold change
- Alu-LTR integration junctions (fold change) [10]: 0.10 ± 0.05 fold change
- Integration failure of 2-LTR circles (fold change) [10]: 0.05 ± 0.04 fold change

SMILES: C[C@H](Cn1cnc2c(N)ncnc21)OCP(=O)(O)O [TFV, tenofovir]
- EC50 [1]: 3720 nM
- EC50 Fold Change Relative to WT ([1]; NRTI resistant 6TAMs): 7.1 fold change
- CC50 at 5 days [3]: > 50000 nM
- EC50 [4]: 360 nM

SMILES: COC(=O)N[C@H](C(=O)N[C@@H](Cc1ccccc1)[C@@H](O)CN(Cc1ccc(-c2ccccn2)cc1)NC(=O)[C@@H](NC(=O)OC)C(C)(C)C)C(C)(C)C [ATV, atazanavir]
- EC50 [1]: 1.6 ± 0.9 nM
- Frequency of Viral Breakthrough with RAMs [2]: 0%
- p24+ Wells [2]: 0/24

SMILES: CC(C)CN(C[C@@H](O)[C@H](Cc1ccccc1)NC(=O)O[C@H]1CO[C@H]2OCC[C@H]21)S(=O)(=O)c1ccc(N)cc1 [DRV, darunavir]
- EC50 [1]: 3.5 ± 1.6 nM
- Late reverse transcription products (fold change) [10]: 0.96 ± 0.11 fold change
- Alu-LTR integration junctions (fold change) [10]: 0.72 ± 0.31 fold change
- Integration failure of 2-LTR circles (fold change) [10]: 0.57 ± 0.24 fold change
